This passage reports IC50 results from BindingDB's records for doi:10.1021/jm050175p (Wyeth Research, 2005).

SMILES strings stand for the structures.

The target of the assay is Tyrosine-protein kinase ABL1 (Homo sapiens, UniProt P00519). The experiment in a line: Homogeneous Time-resolved Fluorescence (HTRF) Assay.
Sequence of Tyrosine-protein kinase ABL1 (P00519 whole entry): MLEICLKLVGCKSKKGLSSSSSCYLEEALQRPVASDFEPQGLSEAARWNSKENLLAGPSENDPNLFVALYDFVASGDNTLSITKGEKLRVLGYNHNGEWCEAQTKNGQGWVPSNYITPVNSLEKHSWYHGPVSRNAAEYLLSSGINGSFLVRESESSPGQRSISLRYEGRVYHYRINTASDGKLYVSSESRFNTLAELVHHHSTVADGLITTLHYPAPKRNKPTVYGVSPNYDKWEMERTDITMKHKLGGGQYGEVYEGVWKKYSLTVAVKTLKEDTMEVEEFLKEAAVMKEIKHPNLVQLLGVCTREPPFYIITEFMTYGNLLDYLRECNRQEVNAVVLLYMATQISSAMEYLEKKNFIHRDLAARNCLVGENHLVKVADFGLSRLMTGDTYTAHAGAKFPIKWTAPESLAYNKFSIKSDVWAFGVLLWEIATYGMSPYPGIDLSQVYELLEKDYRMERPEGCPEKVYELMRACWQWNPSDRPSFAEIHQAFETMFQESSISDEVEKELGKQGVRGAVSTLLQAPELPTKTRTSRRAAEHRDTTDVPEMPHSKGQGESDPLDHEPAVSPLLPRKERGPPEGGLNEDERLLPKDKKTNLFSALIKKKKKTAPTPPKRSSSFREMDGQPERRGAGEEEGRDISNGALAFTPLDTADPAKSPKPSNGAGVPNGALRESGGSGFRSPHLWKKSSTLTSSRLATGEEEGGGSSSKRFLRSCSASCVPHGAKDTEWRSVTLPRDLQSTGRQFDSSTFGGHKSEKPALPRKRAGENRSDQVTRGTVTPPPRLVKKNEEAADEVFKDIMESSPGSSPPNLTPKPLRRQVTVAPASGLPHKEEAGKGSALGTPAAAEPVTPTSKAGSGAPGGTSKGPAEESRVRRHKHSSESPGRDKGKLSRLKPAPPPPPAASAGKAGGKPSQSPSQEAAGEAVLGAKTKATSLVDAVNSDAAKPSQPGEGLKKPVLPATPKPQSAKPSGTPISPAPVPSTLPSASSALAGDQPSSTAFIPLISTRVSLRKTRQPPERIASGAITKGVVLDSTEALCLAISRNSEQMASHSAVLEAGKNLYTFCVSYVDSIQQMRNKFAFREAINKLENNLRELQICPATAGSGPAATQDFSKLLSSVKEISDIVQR
Compound `CCOc1cc(Nc2c(C#N)cnc3cc(OCC4CCN(C)CC4)c(OC)cc23)c(Cl)cc1Cl` [4-[(2,4-Dichloro-5-ethoxyphenyl)amino]-6-methoxy-7-[(1-methylpiperidin-4-yl)methoxy]quinoline-3-carbonitrile] displayed an IC50 of 1500 nM. This counts as single-digit micromolar. `COc1cc(Nc2c(C#N)cnc3cc(OCC4CCCCN4C)c(OC)cc23)c(Cl)cc1Cl` (centres undefined) [4-[(2,4-dichloro-5-methoxyphenyl)amino]-6-methoxy-7-[(1-methylpiperidin-2-yl)methoxy]quinoline-3-carbonitrile]: the IC50 came to 56 nM. Turning to `COc1cc(Nc2c(C#N)cnc3cc(OCC4CCCN(C)C4)c(OC)cc23)c(Cl)cc1Cl` (centres undefined) [4-[(2,4-dichloro-5-methoxyphenyl)amino]-6-methoxy-7-[(1-methylpiperidin-3-yl)methoxy]quinoline-3-carbonitrile], the IC50 worked out at 4.6 nM. The compound `COc1cc(Nc2c(C#N)cnc3cc(OC4CCN(C)CC4)c(OC)cc23)c(Cl)cc1Cl` [4-[(2,4-dichloro-5-methoxyphenyl)amino]-6-methoxy-7-[(1-methylpiperidin-4-yl)oxy]quinoline-3-carbonitrile] came in with an IC50 of 89 nM.
